In the supplement of paper PMC4862054:

What was measured:
Settings in all cases: incubation time: 72 h
CAL-120 [1] = test: normalised response (% of control), CellTox Green; higher = less cell death (100 = DMSO, 0 = benzethonium chloride kill control)
In short: (§1)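 Plates were normalised with 0.1 % DMSO as 100 and a positive kill control as 0. Breast cancer cell lines in 20 µl suspension had been seeded into 384-well plates with compound at 5 concentrations in 10-fold steps over a compound-specific 10,000-fold range, incubated 72 h, and read for CellTox Green fluorescence (485/520 nm) followed by CellTiter-Glo luminescence. Each value is the normalised signal at a single concentration.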

HCC1599 [2] = test: as above
In short: as §1

MDA-MB-453 [3] = test: as above
In short: as §1

CAL-51 [4] = test: as above
In short: as §1

CAL-85-1 [5] = test: as above
In short: as §1

BT-474 [6] = test: as above
In short: as §1

MDA-MB-436 [7] = test: as above
In short: as §1

BT-549 [8] = test: as above
In short: as §1

MFM-223 [9] = test: as above
In short: as §1

DU-4475 [10] = test: as above
In short: as §1

HCC1143 [11] = test: as above
In short: as §1

MCF-10A [12] = test: as above
In short: as §1

Hs578T [13] = test: as above
In short: as §1

MDA-MB-468 [14] = test: as above
In short: as §1

CAL-148 [15] = test: as above
In short: as §1

HCC1937 [16] = test: as above
In short: as §1

CAL-120 [17] = test: normalised response (% of control), CellTiter-Glo; higher = more viable cells (100 = DMSO, 0 = benzethonium chloride kill control)
Procedure: (§2)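 DSRT, 72 h incubation, CellTox Green / CellTiter-Glo readout. Signal is normalised to DMSO and benzethonium chloride controls. Value is the normalised response at dose 3.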

HCC1599 [18] = test: as above
Procedure: as §2

SK-BR-3 = test: as above
Procedure: as §2

HDQ-P1 [19] = test: as above
Procedure: as §2

MDA-MB-453 [20] = test: as above
Procedure: as §2

CAL-51 [21] = test: as above
Procedure: as §2

CAL-85-1 [22] = test: as above
Procedure: as §2

BT-474 [23] = test: as above
Procedure: as §2

MDA-MB-436 [24] = test: as above
Procedure: as §2

BT-549 [25] = test: as above
Procedure: as §2

MFM-223 [26] = test: as above
Procedure: as §2

DU-4475 [27] = test: as above
Procedure: as §2

HCC1143 [28] = test: as above
Procedure: as §2

MDA-MB-231 [29] = test: as above
Procedure: as §2

MCF-10A [30] = test: as above
Procedure: as §2

Hs578T [31] = test: as above
Procedure: as §2

MDA-MB-468 [32] = test: as above
Procedure: as §2

CAL-148 [33] = test: as above
Procedure: as §2

HCC1937 [34] = test: as above
Procedure: as §2

HDQ-P1 [35] = test: normalised response (% of control), CellTox Green; higher = less cell death (100 = DMSO, 0 = benzethonium chloride kill control)
In short: as §1

MDA-MB-231 [36] = test: as above
In short: as §1

Row | SMILES | normalised response (CAL-120 [1]) [%] | normalised response (HCC1599 [2]) [%] | normalised response (MDA-MB-453 [3]) [%] | normalised response (CAL-51 [4]) [%] | normalised response (CAL-85-1 [5]) [%] | normalised response (BT-474 [6]) [%] | normalised response (MDA-MB-436 [7]) [%] | normalised response (BT-549 [8]) [%] | normalised response (MFM-223 [9]) [%] | normalised response (DU-4475 [10]) [%] | normalised response (HCC1143 [11]) [%] | normalised response (MCF-10A [12]) [%] | normalised response (Hs578T [13]) [%] | normalised response (MDA-MB-468 [14]) [%] | normalised response (CAL-148 [15]) [%] | normalised response (HCC1937 [16]) [%] | normalised response (CAL-120 [17]) [%] | normalised response (HCC1599 [18]) [%] | normalised response (SK-BR-3) [%] | normalised response (HDQ-P1 [19]) [%] | normalised response (MDA-MB-453 [20]) [%] | normalised response (CAL-51 [21]) [%] | normalised response (CAL-85-1 [22]) [%] | normalised response (BT-474 [23]) [%] | normalised response (MDA-MB-436 [24]) [%] | normalised response (BT-549 [25]) [%] | normalised response (MFM-223 [26]) [%] | normalised response (DU-4475 [27]) [%] | normalised response (HCC1143 [28]) [%] | normalised response (MDA-MB-231 [29]) [%] | normalised response (MCF-10A [30]) [%] | normalised response (Hs578T [31]) [%] | normalised response (MDA-MB-468 [32]) [%] | normalised response (CAL-148 [33]) [%] | normalised response (HCC1937 [34]) [%] | normalised response (HDQ-P1 [35]) [%] | normalised response (MDA-MB-231 [36]) [%]
1 | COc1cc2nccc(Oc3ccc(NC(=O)C4(C(=O)Nc5ccc(F)cc5)CC4)cc3)c2cc1OC [Cabozantinib] (10 nM) | 98.1 | 91.5 | 101 | 102 | 96.5 | 95.6 | 96.2 | 107 | 100 | 99.5 | 104 | 85.1 | 69.2 | 62.5 | 76 | 102 | 98 | 113 | 94.3 | 93.5 | 100 | 111 | 103 | 93.9 | 105 | 102 | 99.4 | 100 | 99.2 | 99.3 | 97.2 | 99.3 | 97.8 | 110 | 94.6 | – | –
2 | COc1cc([C@@H]2c3cc4c(cc3[C@@H](O[C@@H]3O[C@@H]5CO[C@@H](C)O[C@H]5[C@H](O)[C@H]3O)[C@H]3COC(=O)[C@H]23)OCO4)cc(OC)c1O [Etoposide] (100 nM) | 106 | 110 | 102 | 112 | 95.2 | 101 | 107 | 92.4 | 104 | 98.8 | 98.7 | 75 | – | 56.9 | 92 | 111 | 102 | 110 | 109 | 102 | 113 | 107 | 102 | 99.9 | 98.3 | 94.6 | 110 | 82.9 | 100 | 120 | 106 | 111 | 100 | 103 | 94.9 | 92 | 112
3 | O=P1(NCCCl)OCCCN1CCCl (configuration not stated) [Ifosfamide] (100 nM) | 98 | 95.1 | 89.3 | 90.4 | 110 | 100 | 102 | 112 | 97.8 | 97.9 | 74.1 | 102 | 56.1 | 194 | 90.8 | – | 94.3 | 101 | 89.5 | 98.9 | 88.8 | 68.5 | 95.1 | 97 | 94.9 | 102 | 91.2 | 95.3 | 99.7 | 91.8 | 97.9 | 96.8 | 94.8 | 92 | 98.2 | 88 | 87.4
4 | CC1(C)NC(=O)N(c2ccc([N+](=O)[O-])c(C(F)(F)F)c2)C1=O [Nilutamide] (100 nM) | 102 | 108 | 99.1 | 109 | 102 | 101 | – | 98.4 | 103 | 103 | 119 | – | 109 | 148 | 96.7 | 119 | 102 | 118 | 109 | 102 | 103 | 109 | 101 | 105 | 102 | 101 | 110 | 103 | 105 | 101 | 105 | 103 | 105 | 119 | 98.4 | – | 105
5 | CCCCCCCCCCCCCCCCCCOP(=O)([O-])OC1CC[N+](C)(C)CC1 [Perifosine] (25 nM) | 103 | 97.9 | 99.7 | 93.7 | 109 | 102 | 112 | 97.1 | 93.5 | 104 | 89.7 | 106 | 105 | 95.6 | 103 | 88 | 109 | 101 | 91.3 | 108 | 87 | 96.8 | 98.5 | 101 | 104 | 101 | 93.4 | 96 | 101 | 105 | 105 | 100 | 100 | 88.8 | 103 | – | 92.4
